{"source": "patent US9737644B2", "about": "“Medical device coatings” (TYRX, Inc., priority 2010, dated 2017)", "origin": "cited, not measured here", "tested_on": "myofibroblast formation", "settings": "animal studies, Ajmal et al. (2003)"}
{"smiles": "O=S(=O)([O-])CCS.[Na+]", "note": "[Mesna, sodium 2-mercaptoethane sulfonate]", "values": [{"measurement": "myofibroblast formation", "value": "diminish myofibroblast formation"}]}
